From PMC4490784, “Compensatory induction of MYC expression by sustained CDK9 inhibition via a BRD4-dependent mechanism” (eLife, 2015)

Tests used:
Experiment in all cases: KINOMEscan binding assay
TYRO3 = biological target: T1, TYRO3 (Homo sapiens, UniProt Q06418); settings: read-out: % Retention on Solid Support
T1 construct: purchased DiscoveRx KINOMEscan
Procedure, shortened: (§1)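 Two inhibitor concentrations (1 and 10 µM) were run. Binding to each kinase was assessed by competition with an active site-directed probe, covering upwards of 400 kinases.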

ZAK = biological target: T2, ZAK (Homo sapiens, UniProt Q9NYL2); settings: read-out: % Retention on Solid Support
T2 construct: purchased DiscoveRx KINOMEscan
Procedure, shortened: as §1

KIT(V559D,V654A) = biological target: T3, KIT(V559D,V654A) (Homo sapiens, UniProt P10721, V559D/V654A); settings: read-out: % Retention on Solid Support
T3 construct: purchased DiscoveRx KINOMEscan
Procedure, shortened: as §1

ERBB3 = biological target: T4, ERBB3 (Homo sapiens, UniProt P21860); settings: read-out: % Retention on Solid Support
T4 construct: purchased DiscoveRx KINOMEscan
Procedure, shortened: as §1

TNIK = biological target: T5, TNIK (Homo sapiens, UniProt Q9UKE5); settings: read-out: % Retention on Solid Support
T5 construct: purchased DiscoveRx KINOMEscan
Procedure, shortened: as §1

AMPK-alpha2 = biological target: T6, AMPK-alpha2 (Homo sapiens, UniProt P54646); settings: read-out: % Retention on Solid Support
T6 construct: purchased DiscoveRx KINOMEscan
Procedure, shortened: as §1

PFCDPK1(P.falciparum) = biological target: T7, PFCDPK1(P.falciparum) (Plasmodium falciparum, UniProt P62344); settings: 1 µM i-CDK9; read-out: % Retention on Solid Support
T7 construct: purchased DiscoveRx KINOMEscan
Procedure, shortened: as §1

MAP3K1 = biological target: T8, MAP3K1 (Homo sapiens, UniProt Q13233); settings: read-out: % Retention on Solid Support
T8 construct: purchased DiscoveRx KINOMEscan
Procedure, shortened: as §1

TBK1 = biological target: T9, TBK1 (Homo sapiens, UniProt Q9UHD2); settings: read-out: % Retention on Solid Support
T9 construct: purchased DiscoveRx KINOMEscan
Procedure, shortened: as §1

PYK2 = biological target: T10, PYK2 (Homo sapiens, UniProt Q14289); settings: read-out: % Retention on Solid Support
T10 construct: purchased DiscoveRx KINOMEscan
Procedure, shortened: as §1

NEK3 = biological target: T11, NEK3 (Homo sapiens, UniProt P51956); settings: 1 µM i-CDK9; read-out: % Retention on Solid Support
T11 construct: purchased DiscoveRx KINOMEscan
Procedure, shortened: as §1

HCK = biological target: T12, HCK (Homo sapiens, UniProt P08631); settings: read-out: % Retention on Solid Support
T12 construct: purchased DiscoveRx KINOMEscan
Procedure, shortened: as §1

PIK3C2G = biological target: T13, PIK3C2G (Homo sapiens, UniProt O75747); settings: read-out: % Retention on Solid Support
T13 construct: purchased DiscoveRx KINOMEscan
Procedure, shortened: as §1

STK16 = biological target: T14, STK16 (Homo sapiens, UniProt O75716); settings: read-out: % Retention on Solid Support
T14 construct: purchased DiscoveRx KINOMEscan
Procedure, shortened: as §1

FLT3(K663Q) = biological target: T15, FLT3(K663Q) (Homo sapiens, UniProt P36888, K663Q); settings: read-out: % Retention on Solid Support
T15 construct: purchased DiscoveRx KINOMEscan
Procedure, shortened: as §1

MAP3K3 = biological target: T16, MAP3K3 (Homo sapiens, UniProt Q99759); settings: read-out: % Retention on Solid Support
T16 construct: purchased DiscoveRx KINOMEscan
Procedure, shortened: as §1

FES = biological target: T17, FES (Homo sapiens, UniProt P07332); settings: read-out: % Retention on Solid Support
T17 construct: purchased DiscoveRx KINOMEscan
Procedure, shortened: as §1

CAMK1G = biological target: T18, CAMK1G (Homo sapiens, UniProt Q96NX5); settings: read-out: % Retention on Solid Support
T18 construct: purchased DiscoveRx KINOMEscan
Procedure, shortened: as §1

PAK7 = biological target: T19, PAK7 (Homo sapiens, UniProt Q9P286); settings: read-out: % Retention on Solid Support
T19 construct: purchased DiscoveRx KINOMEscan
Procedure, shortened: as §1

FAK = biological target: T20, FAK (Homo sapiens, UniProt Q05397); settings: read-out: % Retention on Solid Support
T20 construct: purchased DiscoveRx KINOMEscan
Procedure, shortened: as §1

JNK1 = biological target: T21, JNK1 (Homo sapiens, UniProt P45983)
T21 construct: purchased DiscoveRx KINOMEscan
Procedure, shortened: as §1

CSK = biological target: T22, CSK (Homo sapiens, UniProt P41240)
T22 construct: purchased DiscoveRx KINOMEscan
Procedure, shortened: as §1

EGFR(G719C) = biological target: T23, EGFR(G719C) (Homo sapiens, UniProt P00533, G719C)
T23 construct: purchased DiscoveRx KINOMEscan
Procedure, shortened: as §1

[1] = biological target: T24, ABL1(E255K)-nonphosphorylated (Homo sapiens, UniProt P00519, E255K); settings: 10 µM i-CDK9; read-out: % Retention on Solid Support
T24 construct: purchased DiscoveRx KINOMEscan
Procedure, shortened: as §1

PRKG2 = biological target: T25, PRKG2 (Homo sapiens, UniProt Q13237); settings: read-out: % Retention on Solid Support
T25 construct: purchased DiscoveRx KINOMEscan
Procedure, shortened: as §1

TXK = biological target: T26, TXK (Homo sapiens, UniProt P42681); settings: read-out: % Retention on Solid Support
T26 construct: purchased DiscoveRx KINOMEscan
Procedure, shortened: as §1

EGFR(E746-A750del) = biological target: T27, EGFR(E746-A750del) (Homo sapiens, UniProt P00533, DEL746-750)
T27 construct: purchased DiscoveRx KINOMEscan
Procedure, shortened: as §1

PIK3CA(H1047Y) = biological target: T28, PIK3CA(H1047Y) (Homo sapiens, UniProt P42336, H1047Y); settings: read-out: % Retention on Solid Support
T28 construct: purchased DiscoveRx KINOMEscan
Procedure, shortened: as §1

PRKCH = biological target: T29, PRKCH (Homo sapiens, UniProt P24723); settings: read-out: % Retention on Solid Support
T29 construct: purchased DiscoveRx KINOMEscan
Procedure, shortened: as §1

T22 sequence (P41240 whole entry): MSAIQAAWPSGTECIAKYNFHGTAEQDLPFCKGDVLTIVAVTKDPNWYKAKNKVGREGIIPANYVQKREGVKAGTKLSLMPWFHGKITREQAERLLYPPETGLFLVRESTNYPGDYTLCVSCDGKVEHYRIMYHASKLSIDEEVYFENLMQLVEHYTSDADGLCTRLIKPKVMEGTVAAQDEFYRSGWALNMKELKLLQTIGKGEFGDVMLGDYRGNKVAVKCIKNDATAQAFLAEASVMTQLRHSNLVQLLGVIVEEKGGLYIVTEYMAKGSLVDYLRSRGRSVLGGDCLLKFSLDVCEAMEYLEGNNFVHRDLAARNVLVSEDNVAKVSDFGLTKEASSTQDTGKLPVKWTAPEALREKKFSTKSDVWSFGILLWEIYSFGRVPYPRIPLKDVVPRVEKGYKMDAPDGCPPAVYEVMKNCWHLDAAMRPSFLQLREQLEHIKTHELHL
T12 sequence (P08631 whole entry): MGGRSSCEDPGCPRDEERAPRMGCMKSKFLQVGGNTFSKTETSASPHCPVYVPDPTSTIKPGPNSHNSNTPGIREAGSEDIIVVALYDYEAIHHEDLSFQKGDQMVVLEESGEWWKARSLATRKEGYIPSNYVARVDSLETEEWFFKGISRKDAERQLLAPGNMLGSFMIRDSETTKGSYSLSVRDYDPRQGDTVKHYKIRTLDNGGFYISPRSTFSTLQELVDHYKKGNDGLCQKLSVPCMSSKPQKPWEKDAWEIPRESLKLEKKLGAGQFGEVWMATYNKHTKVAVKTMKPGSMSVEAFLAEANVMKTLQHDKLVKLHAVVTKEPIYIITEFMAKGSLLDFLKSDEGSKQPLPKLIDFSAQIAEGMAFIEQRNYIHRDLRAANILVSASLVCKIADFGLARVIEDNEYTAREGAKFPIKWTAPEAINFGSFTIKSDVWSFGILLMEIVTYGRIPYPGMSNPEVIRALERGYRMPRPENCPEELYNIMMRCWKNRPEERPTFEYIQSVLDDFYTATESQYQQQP
T20 sequence (Q05397 whole entry): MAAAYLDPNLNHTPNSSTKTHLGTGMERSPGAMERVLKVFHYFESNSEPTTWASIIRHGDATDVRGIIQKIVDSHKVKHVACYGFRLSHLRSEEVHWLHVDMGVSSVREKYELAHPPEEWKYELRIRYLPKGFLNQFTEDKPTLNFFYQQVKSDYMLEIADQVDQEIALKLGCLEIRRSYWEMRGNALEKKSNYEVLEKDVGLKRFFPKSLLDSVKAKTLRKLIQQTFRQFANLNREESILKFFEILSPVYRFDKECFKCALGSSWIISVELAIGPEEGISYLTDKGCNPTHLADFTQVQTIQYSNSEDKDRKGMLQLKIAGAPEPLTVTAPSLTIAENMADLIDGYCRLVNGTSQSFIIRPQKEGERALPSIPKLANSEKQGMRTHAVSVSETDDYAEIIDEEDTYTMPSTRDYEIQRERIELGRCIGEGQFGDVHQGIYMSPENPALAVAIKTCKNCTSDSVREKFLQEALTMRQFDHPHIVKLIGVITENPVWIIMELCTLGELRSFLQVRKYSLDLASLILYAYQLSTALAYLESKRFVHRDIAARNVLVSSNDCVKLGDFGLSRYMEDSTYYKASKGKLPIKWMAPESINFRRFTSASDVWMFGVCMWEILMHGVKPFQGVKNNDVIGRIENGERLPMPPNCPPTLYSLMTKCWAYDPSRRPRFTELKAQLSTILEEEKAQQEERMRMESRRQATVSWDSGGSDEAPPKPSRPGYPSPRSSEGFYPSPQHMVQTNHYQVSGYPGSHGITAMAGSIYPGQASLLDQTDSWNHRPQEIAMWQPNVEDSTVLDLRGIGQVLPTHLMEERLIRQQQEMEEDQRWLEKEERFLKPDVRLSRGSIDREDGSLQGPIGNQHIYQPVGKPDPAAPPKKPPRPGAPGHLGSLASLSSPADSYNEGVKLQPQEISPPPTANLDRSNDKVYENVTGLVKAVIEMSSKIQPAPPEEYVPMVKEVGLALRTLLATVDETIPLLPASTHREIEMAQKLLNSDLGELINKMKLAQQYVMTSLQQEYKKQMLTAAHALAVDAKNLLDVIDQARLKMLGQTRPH
T19 sequence (Q9P286 whole entry): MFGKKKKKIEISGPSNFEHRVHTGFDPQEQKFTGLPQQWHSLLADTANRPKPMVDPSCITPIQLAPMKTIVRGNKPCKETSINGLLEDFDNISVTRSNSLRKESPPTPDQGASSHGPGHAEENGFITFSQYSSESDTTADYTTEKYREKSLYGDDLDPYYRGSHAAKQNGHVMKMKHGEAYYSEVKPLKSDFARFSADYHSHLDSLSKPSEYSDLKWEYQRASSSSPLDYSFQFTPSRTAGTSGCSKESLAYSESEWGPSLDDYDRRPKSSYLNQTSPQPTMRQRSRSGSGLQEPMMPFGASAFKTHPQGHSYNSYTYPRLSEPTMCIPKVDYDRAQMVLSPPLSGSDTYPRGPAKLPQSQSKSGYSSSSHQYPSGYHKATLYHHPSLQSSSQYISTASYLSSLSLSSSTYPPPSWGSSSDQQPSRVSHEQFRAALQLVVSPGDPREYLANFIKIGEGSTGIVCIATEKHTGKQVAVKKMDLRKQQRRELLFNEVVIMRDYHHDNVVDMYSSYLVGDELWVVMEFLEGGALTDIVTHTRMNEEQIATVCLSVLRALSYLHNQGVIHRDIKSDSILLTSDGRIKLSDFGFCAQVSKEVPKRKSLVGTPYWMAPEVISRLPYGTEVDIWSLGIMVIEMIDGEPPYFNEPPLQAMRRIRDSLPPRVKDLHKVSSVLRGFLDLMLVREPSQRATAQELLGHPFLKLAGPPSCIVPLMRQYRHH
T21 sequence (P45983 whole entry): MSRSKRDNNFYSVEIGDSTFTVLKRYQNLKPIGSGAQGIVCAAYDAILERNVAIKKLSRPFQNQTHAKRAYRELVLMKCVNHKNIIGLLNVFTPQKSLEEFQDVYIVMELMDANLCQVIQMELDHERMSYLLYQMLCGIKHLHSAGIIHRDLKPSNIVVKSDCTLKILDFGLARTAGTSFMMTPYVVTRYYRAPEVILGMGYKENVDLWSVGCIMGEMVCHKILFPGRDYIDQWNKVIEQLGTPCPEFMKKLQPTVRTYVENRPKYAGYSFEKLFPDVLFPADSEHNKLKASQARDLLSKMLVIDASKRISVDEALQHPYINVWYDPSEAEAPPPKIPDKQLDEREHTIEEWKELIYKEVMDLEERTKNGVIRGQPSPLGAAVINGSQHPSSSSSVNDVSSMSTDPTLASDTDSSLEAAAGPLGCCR
T18 sequence (Q96NX5 whole entry): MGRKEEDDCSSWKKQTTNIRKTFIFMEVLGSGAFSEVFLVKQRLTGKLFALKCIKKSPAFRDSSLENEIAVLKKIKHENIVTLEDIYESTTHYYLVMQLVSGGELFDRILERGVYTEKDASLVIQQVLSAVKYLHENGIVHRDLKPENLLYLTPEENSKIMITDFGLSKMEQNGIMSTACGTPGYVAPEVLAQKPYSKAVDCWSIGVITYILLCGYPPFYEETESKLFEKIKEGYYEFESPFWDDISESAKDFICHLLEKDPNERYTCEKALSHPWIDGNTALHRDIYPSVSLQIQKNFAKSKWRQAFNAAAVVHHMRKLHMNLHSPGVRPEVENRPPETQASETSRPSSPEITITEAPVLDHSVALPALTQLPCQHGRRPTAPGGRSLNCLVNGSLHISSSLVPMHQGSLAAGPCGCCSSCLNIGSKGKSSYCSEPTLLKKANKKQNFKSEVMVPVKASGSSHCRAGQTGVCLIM
T26 sequence (P42681 whole entry): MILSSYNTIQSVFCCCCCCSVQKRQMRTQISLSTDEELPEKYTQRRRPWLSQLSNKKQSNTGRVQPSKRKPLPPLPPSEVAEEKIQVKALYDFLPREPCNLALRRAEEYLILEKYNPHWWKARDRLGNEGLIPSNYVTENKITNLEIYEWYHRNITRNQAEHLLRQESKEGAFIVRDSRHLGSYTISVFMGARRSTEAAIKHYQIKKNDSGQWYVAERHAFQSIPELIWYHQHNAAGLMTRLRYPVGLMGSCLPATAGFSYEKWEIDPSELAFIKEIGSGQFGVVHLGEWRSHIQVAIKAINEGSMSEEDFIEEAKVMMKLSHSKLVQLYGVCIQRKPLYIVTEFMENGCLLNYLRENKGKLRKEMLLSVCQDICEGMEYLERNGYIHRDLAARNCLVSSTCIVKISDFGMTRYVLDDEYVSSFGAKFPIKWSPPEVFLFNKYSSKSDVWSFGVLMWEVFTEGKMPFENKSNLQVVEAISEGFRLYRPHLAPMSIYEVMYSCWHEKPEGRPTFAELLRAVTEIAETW
T9 sequence (Q9UHD2 whole entry): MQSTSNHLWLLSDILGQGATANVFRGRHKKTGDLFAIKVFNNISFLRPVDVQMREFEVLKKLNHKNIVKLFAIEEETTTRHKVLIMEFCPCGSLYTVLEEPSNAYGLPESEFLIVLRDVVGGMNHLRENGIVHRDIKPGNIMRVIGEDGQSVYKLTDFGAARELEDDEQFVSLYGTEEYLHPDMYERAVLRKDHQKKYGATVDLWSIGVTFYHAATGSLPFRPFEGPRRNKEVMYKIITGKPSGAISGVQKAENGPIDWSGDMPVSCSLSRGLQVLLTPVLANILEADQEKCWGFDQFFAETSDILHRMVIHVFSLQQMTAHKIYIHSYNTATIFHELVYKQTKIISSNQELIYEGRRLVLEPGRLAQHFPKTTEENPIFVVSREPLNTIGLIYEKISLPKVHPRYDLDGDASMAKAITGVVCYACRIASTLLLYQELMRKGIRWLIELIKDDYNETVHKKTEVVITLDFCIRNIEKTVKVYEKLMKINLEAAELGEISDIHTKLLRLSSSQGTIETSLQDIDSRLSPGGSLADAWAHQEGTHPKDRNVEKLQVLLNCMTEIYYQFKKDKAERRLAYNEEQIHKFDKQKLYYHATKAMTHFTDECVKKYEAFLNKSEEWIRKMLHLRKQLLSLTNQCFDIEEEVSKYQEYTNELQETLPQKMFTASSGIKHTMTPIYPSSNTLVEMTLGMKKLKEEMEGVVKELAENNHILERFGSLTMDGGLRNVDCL

Compound: N[C@H]1CC[C@H](Nc2cc(-c3cccc(NCc4cccc(F)c4)n3)c(Cl)cn2)CC1 [i-CDK9, N2′-(trans-4-aminocyclohexyl)-5′-chloro-N6-(3-fluorobenzyl)-2,4′-bipyridine-2′,6-diamine]
- remaining binding at 1 µM (TYRO3; 1 µM i-CDK9): 71%
- remaining binding at 10 µM (TYRO3; 10 µM i-CDK9): 100%
- remaining binding at 1 µM (ZAK; 1 µM i-CDK9): 100%
- remaining binding at 10 µM (ZAK; 10 µM i-CDK9): 93%
- remaining binding at 1 µM (KIT(V559D,V654A); 1 µM i-CDK9): 100%
- remaining binding at 10 µM (KIT(V559D,V654A); 10 µM i-CDK9): 75%
- remaining binding at 1 µM (ERBB3; 1 µM i-CDK9): 100%
- remaining binding at 10 µM (ERBB3; 10 µM i-CDK9): 100%
- remaining binding at 1 µM (TNIK; 1 µM i-CDK9): 72%
- remaining binding at 10 µM (TNIK; 10 µM i-CDK9): 36%
- remaining binding at 1 µM (AMPK-alpha2; 1 µM i-CDK9): 83%
- remaining binding at 10 µM (AMPK-alpha2; 10 µM i-CDK9): 88%
- remaining binding at 1 µM (PFCDPK1(P.falciparum)): 100%
- remaining binding at 1 µM (MAP3K1; 1 µM i-CDK9): 93%
- remaining binding at 10 µM (MAP3K1; 10 µM i-CDK9): 100%
- remaining binding at 1 µM (TBK1; 1 µM i-CDK9): 100%
- remaining binding at 10 µM (TBK1; 10 µM i-CDK9): 100%
- remaining binding at 1 µM (PYK2; 1 µM i-CDK9): 100%
- remaining binding at 10 µM (PYK2; 10 µM i-CDK9): 100%
- remaining binding at 1 µM (NEK3): 100%
- remaining binding at 1 µM (HCK; 1 µM i-CDK9): 81%
- remaining binding at 10 µM (HCK; 10 µM i-CDK9): 100%
- remaining binding at 1 µM (PIK3C2G; 1 µM i-CDK9): 100%
- remaining binding at 10 µM (PIK3C2G; 10 µM i-CDK9): 99%
- remaining binding at 1 µM (STK16; 1 µM i-CDK9): 95%
- remaining binding at 10 µM (STK16; 10 µM i-CDK9): 100%
- remaining binding at 1 µM (FLT3(K663Q); 1 µM i-CDK9): 100%
- remaining binding at 10 µM (FLT3(K663Q); 10 µM i-CDK9): 74%
- remaining binding at 1 µM (MAP3K3; 1 µM i-CDK9): 100%
- remaining binding at 10 µM (MAP3K3; 10 µM i-CDK9): 93%
- remaining binding at 1 µM (FES; 1 µM i-CDK9): 97%
- remaining binding at 10 µM (FES; 10 µM i-CDK9): 90%
- remaining binding at 1 µM (CAMK1G; 1 µM i-CDK9): 92%
- remaining binding at 10 µM (CAMK1G; 10 µM i-CDK9): 100%
- remaining binding at 1 µM (PAK7; 1 µM i-CDK9): 75%
- remaining binding at 10 µM (PAK7; 10 µM i-CDK9): 81%
- remaining binding at 1 µM (FAK; 1 µM i-CDK9): 88%
- remaining binding at 10 µM (FAK; 10 µM i-CDK9): 99%
- % Retention on Solid Support (JNK1; 1 µM i-CDK9): 80%
- % Retention on Solid Support (JNK1; 10 µM i-CDK9): 34%
- % Retention on Solid Support (CSK; 1 µM i-CDK9): 100%
- % Retention on Solid Support (CSK; 10 µM i-CDK9): 100%
- % Retention on Solid Support (EGFR(G719C); 1 µM i-CDK9): 86%
- % Retention on Solid Support (EGFR(G719C); 10 µM i-CDK9): 46%
- remaining binding at 10 µM [1]: 100%
- remaining binding at 1 µM (PRKG2; 1 µM i-CDK9): 100%
- remaining binding at 10 µM (PRKG2; 10 µM i-CDK9): 100%
- remaining binding at 1 µM (TXK; 1 µM i-CDK9): 100%
- remaining binding at 10 µM (TXK; 10 µM i-CDK9): 100%
- % Retention on Solid Support (EGFR(E746-A750del); 1 µM i-CDK9): 0%
- % Retention on Solid Support (EGFR(E746-A750del); 10 µM i-CDK9): 78%
- remaining binding at 1 µM (PIK3CA(H1047Y); 1 µM i-CDK9): 100%
- remaining binding at 10 µM (PIK3CA(H1047Y); 10 µM i-CDK9): 100%
- remaining binding at 1 µM (PRKCH; 1 µM i-CDK9): 83%
- remaining binding at 10 µM (PRKCH; 10 µM i-CDK9): 80%
